Among the data in the NIST ThermoML archive (doi:10.1021/je3002305) are refractive index values, retold here.

Numbers after ± are expanded uncertainties.

This series is described as follows: refractive index (Na D-line) (dimensionless). The note with it: 293.1 K; 101.33 kPa; Liquid; Standard Abbe refractometry.
A word on the refractive index: it is a measure of how strongly the sample bends light. For `CCCCn1cc[n+](C)c1.F[P-](F)(F)(F)(F)F` [1-butyl-3-methylimidazolium hexafluorophosphate], the refractive index turned out to be 1.4101 ± 0.0008.
On to `CCCCCCn1cc[n+](C)c1.F[P-](F)(F)(F)(F)F` [1-hexyl-3-methylimidazolium hexafluorophosphate], for which the refractive index turned out to be 1.4176 ± 0.0008.
As to `CCCCCCCC[n+]1ccn(C)c1.F[P-](F)(F)(F)(F)F` [1-octyl-3-methylimidazolium hexafluorophosphate], the refractive index is reported as 1.4231 ± 0.0008.
Next, `CCCCc1ccccc1` [butylbenzene]: 1.4894 ± 0.0008; `CCCCCCCCCCCC` [dodecane]: 1.4221 ± 0.0008.
